# Several values for one entry are separate records, joined by “and”; a condition that tells them apart may be missing. Equal values may be shown once. Entries after “also recorded” stand apart in the source; their conditions may differ. Read-outs that look alike come from different tables or passages of the source. Where no end group is shown, it is not given here.
# B1: H3 1-15 K4me3K9me2 peptide (peptide)
# peptide: ARTK(me3)QTARK(me2)STGGKA
# notes: also called H3K4me3K9me2; source: synthetic peptide, bought: Scilight Biotechnology LLC
# B2: WHx2-21 peptide (woodchuck HBx) (peptide)
# peptide: AARLCCQLDSARDVLLLRPF-NH2
# modifications: cysteine pairing not given here
# notes: also called FWHx; source: synthetic peptide, bought: Scilight Biotechnology LLC
# B3: GSHBx2-21 peptide (ground squirrel HBx) (peptide)
# peptide: AARLCCQLDSSRDVLLLRPL-NH2
# modifications: cysteine pairing not given here
# notes: source: synthetic peptide, bought: Scilight Biotechnology LLC
# B4: HBx61-80 peptide (peptide)
# peptide: Ac-CSFSSAGPCALRFTSARRME-NH2
# modifications: cysteine pairing not given here
# notes: as for B3
# B5: HBx-D2-21 peptide (peptide)
# peptide: AARLCCQLDPARDVLCLRPV-NH2
# modifications: cysteine pairing not given here
# notes: as for B3
# B6: HBx11-30 peptide (peptide)
# peptide: Ac-PARDVLCLRPIGAESRGRPL-NH2
# notes: as for B3
# Experiments:
# [1] = tested on: HBV RNA; test: Rescue of HBV transcription/expression in Spindlin1 knockdown HepG2-NTCP cells; assay type: cell-based; conditions: ectopic expression in Spindlin1 knockdown cells
# Experimental: Cells were harvested with TRIzol™ Reagent (Invitrogen, Carlsbad, CA). The RNA was extracted and precipitated with equal volumes of isopropanol. The RNA pellet was washed with 75% ethanol and dissolved in DEPC-treated H2O. The RNA solution with 1xRNA loading buffer was incubated at 65 °C heat block for 5 min and put on ice for 5 min. Then the RNA sample was subjected to 1.2% agarose gel electrophoresis (with 1xMOPS buffer and 5% formaldehyde solution) and transferred onto Amersham Hybond-N+ membrane (GE Healthcare). After UV crosslinking, the RNA was detected with DIG-labeled full-length HBV genome and DIG-labeled GAPDH probe (DIG-high prime DNA-labeling and detection starter kit II, Roche, cat. No. 11585614910).
# [2] = molecular target: T1, human Spindlin1_50–262 (Homo sapiens, UniProt Q9Y657); test: ITC
# [3] = molecular target: T1, human Spindlin1_50–262; assay type: binding; design: Human Spindlin1_50–262 was cloned into pGEX-6P-1 vector containing an N-terminal GST tag; GST (N, cleaved yes); made in house; host or cells: E. coli BL21(DE3); conditions: 25 °C; for ΔS / ΔH / K (association constant): ITC, pH 7.5, free wild-type Spindlin1_50–262; for ΔH / N / K (association constant): mean ± SE; for N: ITC stoichiometry, free wild-type Spindlin1_50–262; for K (association constant): One Set of Binding Sites fit
# Experimental: Cells were harvested and lysed in lysis buffer: 0.2 M NaCl, 20 mM Tris, pH 8.0 containing 1 mM fresh PMSF. After centrifugation, the GST-tagged Spindlin1_50–262 was purified by a GST affinity column and then the GST tag was cleaved on-column by a home-made P3C protease overnight. The tag-free protein was collected for an anion-exchange chromatography over a HiTrap Q HP column and Superdex G75 columns (GE Healthcare). The Spindlin1_50–262 protein was concentrated to 25 mg/ml in 0.15 M NaCl, 20 mM Tris, pH 8.0, aliquoted and stored at −80 °C for future use. All Spindlin1_50–262 mutants were generated by the QuikChange site-directed mutagenesis strategy and purified using the same procedure as described above.
# (§1) Calorimetric experiments were conducted at 25 °C with a MicroCal PEAQ-ITC instrument (Malvern Instruments) as previously described. The Spindlin1_50–262 samples were extensively dialyzed against the buffer containing 20 mM HepesNa (pH 7.5) and 150 mM NaCl. Protein concentration was determined by absorbance spectroscopy at 280 nm. Peptide concentrations were determined by weighing in large quantities. Each ITC titration consisted of 17 successive injections with 0.4 μl for the first and 2.4 μl for the rest. The intervals between injections were 180 s, and the stirring speed was 750 rpm. […] Acquired calorimetric titration data were fitted at 95% confidence and analyzed using Origin 7.0 (GE Healthcare) using the One Set of Binding Sites fitting model. Data represent the mean ± SE. Detailed thermodynamic parameters of each titration are summarized in the Supplementary Table 2.
# [4] = molecular target: Spindlin1_50-262 & HBx2-21 (Homo sapiens, UniProt Q9Y657); conditions: ITC; for K (association constant): 25 °C, pH 7.5, mean ± SE; for N / ΔH: mean ± SE
# Experimental: Cells were harvested and lysed in lysis buffer: 0.2 M NaCl, 20 mM Tris, pH 8.0 containing 1 mM fresh PMSF. […] The tag-free protein was collected for an anion-exchange chromatography over a HiTrap Q HP column and Superdex G75 columns (GE Healthcare).
# as §1, with “Protein” for “Calorimetric experiments were conducted at 25 °C with a MicroCal PEAQ-ITC instrument (Malvern Instruments) as previously described. The Spindlin1_50–262 samples were extensively dialyzed against the buffer containing 20 mM HepesNa (pH 7.5) and 150 mM NaCl. Protein”
# [5] = tested on: HBx; conditions: Huh7 cells, 48 h after co-transfection, WB
# Experimental: (§2) Mutations in full-length Spindlin1 were generated by site-directed mutagenesis and confirmed by DNA sequencing. Plasmid DNA and siRNA transfections were performed using Lipofectamine 3000 reagent (Invitrogen) and Lipofectamine RNAiMAX (Invitrogen) according to the manufacturer’s protocol, respectively.
# [6] = tested on: HBeAg; conditions: ectopic expression in Spindlin1 knockdown cells
# Experimental: as §2
# For infections, cells were incubated with viral supernatants in the presence of 10 µg/ml polybrene.
# For siRNA knockdown experiments of HepG2-NTCP cells, the siRNAs (sequences are listed in the Supplementary Table 4) were transfected at 3dpi, and incubated with cells for 24 h. Then the cells were maintained in PMM with 2% FBS with regular medium changing every other day. For cccDNA formation experiment, the siRNAs were transfected 48 h before infection and incubated with cells for 24 h. Then the cells were cultured with PMM medium for another […]. The cells were then infected with HBV at 800GEQ in the presence of 5% PEG8000 for 24 h at 37 °C.
# HBeAg levels of HBV infected cells were measured using ELISA kits (Wantai Pharm Inc). Supernatants from HBV infected cells were harvested at each time point examined in the various assays and were diluted 4-fold with DMEM before ELISA.
# [7] = molecular target: T2, Human Spindlin1 50-262 (human, UniProt Q9Y657 50-262); test: ITC; conditions: both partners purified
# T2 construct: also called SPIN1; not shown: GST, N-terminal, cleaved
# [8] = molecular target: T2, Human Spindlin1 50-262; test: ITC; conditions: both partners purified; remark: listed apart in the source
# [9] = molecular target: T2, Human Spindlin1 50-262; test: ITC; conditions: both partners purified; remark: listed apart in the source
# [10] = molecular target: T2, Human Spindlin1 50-262; test: ITC; conditions: both partners purified; remark: listed apart in the source
# [11] = listed as wild-type (WT) Spindlin1
# T2 sequence (Q9Y657 50-262): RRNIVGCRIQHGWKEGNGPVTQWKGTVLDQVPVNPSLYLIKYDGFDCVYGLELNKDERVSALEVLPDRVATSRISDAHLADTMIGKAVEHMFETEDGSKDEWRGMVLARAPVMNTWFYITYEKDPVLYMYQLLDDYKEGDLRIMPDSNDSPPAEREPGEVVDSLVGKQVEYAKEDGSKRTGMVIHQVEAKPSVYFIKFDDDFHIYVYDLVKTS
# T1 sequence (Q9Y657 50-262): as above
# Chain of Spindlin1_50-262 & HBx2-21 (Q9Y657 whole entry, looked up): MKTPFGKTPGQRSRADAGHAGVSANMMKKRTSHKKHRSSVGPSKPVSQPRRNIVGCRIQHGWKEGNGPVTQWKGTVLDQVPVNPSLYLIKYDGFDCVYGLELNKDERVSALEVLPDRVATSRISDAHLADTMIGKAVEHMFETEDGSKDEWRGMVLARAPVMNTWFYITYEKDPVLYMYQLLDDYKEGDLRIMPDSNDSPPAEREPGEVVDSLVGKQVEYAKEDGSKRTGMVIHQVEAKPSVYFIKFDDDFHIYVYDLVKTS
molecule,measurement,setting,value
W72R,Restoration of HBV transcription/expression,[1],not its H3K4me3 and H3K9me3-binding deficient mutants
HBx_(11–30) peptide,fold weaker binding than HBx (2–21),[2],44 fold
"AARLCCQLDPARDVLCLRPV-NH2 [HBx-D2-21, HBx-D N-terminal motif peptide]",ΔS,[3],18.0 cal/mol/deg
same,ΔH,[3],-3096± 42.71 kal/mol
"Ac-CSFSSAGPCALRFTSARRME-NH2 [HBx61-80, HBx array peptide]",ΔS,[3],-1.7 cal/mol/deg
same,ΔH,[3],-6319± 252.7 kal/mol
HBx_(61–80) peptide,fold weaker binding than HBx (2–21),[2],55 fold
HBx_(2–21) peptide (from UniProt Q69607) L18R,Kd,[2],35.8 µM
"ARTK(m e3)QTARK(me2)STGGKA-NH2 [H31-15 K4me3K9me2, histone H3 peptide]",ΔS,[4],-12.1 cal/mol/deg
same,K (association constant),[4],1.74e+08 ± 9.28e+07 M⁻¹
same,N,[4],1.0± 0.004
same,ΔH,[4],-14860± 139.6 kal/mol
same,N,[3],1.0± 0.002
same,ΔS,[3],-15.3 cal/mol/deg
same,K (association constant),[3],4.18e+07 ± 4.82e+06 M⁻¹
same,ΔH,[3],-14960± 61.22 kal/mol
"AARLCCQLDSSRDVLLLRPL-NH2 [GSHBx, ground squirrel HBx N-terminal motif peptide]",ΔS,[3],25.3 cal/mol/deg
same,ΔH,[3],-987.3± 23.4 kal/mol
Ac-PARDVLCLRPIGAESRGRPL-NH2 [HBx11-30],ΔS,[3],8.2 cal/mol/deg
same,ΔH,[3],-3496± 197.8 kal/mol
K216S/V218R double mutant,Interaction with HBx (Co-IP),[5],disrupted Spindlin1-HBx engagement both in vitro and in cellular context
same,Interaction with HBx (Co-IP),[5]; listed as Spindlin1 K216S/V218R,significantly compromised
same,Restoration of HBeAg levels,[6],not the K216S/V218R double mutant that effectively restored
"ARTK(m e3)QTAR(me2a)KSTGGKAPRKQL-NH2 [H31-20 K4me3R8me2a, histone H3 peptide]",ΔS,[4],-22.0 cal/mol/deg
same,K (association constant),[4],4.74e+07 ± 7.62e+06 M⁻¹
same,N,[4],1.0± 0.003
same,ΔH,[4],-17040± 96.9 kal/mol
same,N,[3],1.0± 0.004
same,ΔS,[3],-23.6 cal/mol/deg
same,K (association constant),[3],3.2e+07 ± 5.15e+06 M⁻¹
same,ΔH,[3],-17280± 115.8 kal/mol
HBx_(2–21) peptide (from UniProt Q69607) V15R,Kd,[2],14.4 µM
wild-type Spindlin1: ectopically expressed wild-type Spindlin1,Restoration of HBV transcription/expression,[1],effectively restored the levels of HBV transcription and HBeAg; also recorded: restored HBV expression
same,Restoration of HBV transcription/expression,[1]; [11],restore the levels of HBV transcription and HBeAg
same,Restoration of HBeAg levels,[6],effectively restored the levels of HBV transcription and HBeAg
same,Restoration of HBeAg levels,[6]; [11],restore the levels of HBV transcription and HBeAg
"AARLCCQLDSARDVLLLRPF-NH2 [WHx, woodchuck HBx N-terminal motif peptide]",ΔS,[3],9.96 cal/mol/deg
same,ΔH,[3],-4600± 130.4 kal/mol
"Ac-GKGGAKRHRK (me3)VLRDNIQGIT-NH2 [H411-30 K20me3, histone H4 peptide]",N,[4],0.9± 0.010 and 1.0± 0.001
same,N,[3],1.0± 0.016
same,ΔS,[3],-12.3 cal/mol/deg
same,ΔH,[3],-12920± 254.2 kal/mol
HBx2-21 V15R peptide,stoichiometry N,[2],1
B1,Kd,[7],0.0242 µM
same,Ka,[8],4.18e+07 M⁻¹
B2,Kd,[9],2.9 µM
same,Ka,[8],354000 M⁻¹
same,stoichiometry N,[8],0.9
B3,Kd,[9],0.62 µM
same,Ka,[8],1.83e+06 M⁻¹
same,stoichiometry N,[8],1.1
B4,Kd,[10],55.5 µM
same,Ka,[8],18200 M⁻¹
same,stoichiometry N,[8],1
B5,Kd,[9],0.7 µM
same,Ka,[8],1.56e+06 M⁻¹
same,stoichiometry N,[8],0.951
B6,Kd,[10],45.9 µM
same,Ka,[8],22600 M⁻¹
same,stoichiometry N,[8],1.2

# Source: paper PMC10400593, “Molecular insights into Spindlin1-HBx interplay and its impact on HBV transcription from cccDNA minichromosome” (Nature Communications, 2023)
